# Test results reported in patent publication US4347319A, “Microbiological epoxidation process” (priority 1980, dated 1982).
# Read-outs that look alike come from different tables or passages of the source.
# How the values were obtained:
# [1] = test system: Methylobacter bovis (CRL M1Y) NRRL B-11,216; experiment: Oxidation by washed cell suspensions of methane-grown cells; format: cell-based
# Summary of the method: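 Washed resting cells from methane-grown cultures oxidise the test substrate, supplied as a 1:1 mix with O2 or as 10 μl liquid, at 30 °C in pH 7.0 phosphate buffer; product formation is followed by GC.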
# [2] = test system: Methylobacter chroococcum (CRL M6) NRRL B-11,214; experiment: as above; format: cell-based
# Summary of the method: (§1)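 Cells grown 2 days at 30 °C under methane/air 1:1 (pH 7.0 medium), washed and resuspended in 0.15 M phosphate pH 7.0. Suspension (2 mg cells) incubated at 30 °C, 300 rpm under substrate/O2 1:1 (liquid substrates 10 μl); products measured periodically by GC with flame ionization detection.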
# [3] = test system: Methylobacterium organophilum (CRL 26 R6) NRRL B-11,222; experiment: as above; format: cell-based
# Summary of the method: as §1
# [4] = test system: Methylococcus capsulatus (CRL M1) NRRL B-11,219; experiment: as above; format: cell-based
# Summary of the method: as §1
# [5] = test system: Methylosinus trichosporium (CRL 15 PM1) NRRL B-11,202; experiment: as above; format: cell-based
# Summary of the method: as §1
# [6] = test system: cell fractions of Methylobacterium sp. (CRL-26, NRRL B-11,222); experiment: Oxidation by cell fractions P(40), P(80), S(80); format: biochemical; conditions: for Conversion Rate: particulate P(40) fraction, n-propane to 2-propanol, n-butane to 2-butanol; for Oxidizing Activity (rate of oxidation) in cell fraction: propylene to propylene oxide, methane to methanol, 30° C.
# Protocol: Cells were washed twice with 25 mM potassium phosphate buffer, pH 7.0 containing 5 mM MgCl2. Cells were suspended in the same buffer. The cell suspensions at 4° C. were disintegrated by a single passage through a French Pressure cell (15,000 lb./in.^2) and centrifuged at 5000×g. for 15 min. to remove unbroken bacteria. The supernatant solution (crude extract) was then centrifuged at 40,000×g. for 30 min., yielding particulate P(40) and soluble S(40) fractions. The S(40) fraction was subsequently centrifuged at 80,000×g. for 60 min., yielding particulate P(80) and soluble S(80) fractions. The particulate fractions [P(40) and P(80)] were suspended in 25 mM potassium phosphate buffer, pH 7.0, containing 5 mM MgCl2 and homogenized at 4° C.
# The oxidation of methane and propylene by particulate [(P)40 and (P)80] fractions and soluble [S(80)] fraction was measured at 30° C. by estimating the production of methanol and propylene oxide, respectively. The reaction mixtures contained in […]: 150 mM potassium phosphate buffer, pH 7.0 containing 5 mM MgCl2 b, 0.6 ml; 10μ moles NADH, and cellular fraction.
# Reaction mixtures were contained in 10 ml vials at 4° C. Vials were sealed with rubber caps. The gaseous phase in the vials was removed using vacuum and then was replaced with a gas mixture of methane or propylene and oxygen at a 1:1, v/v ratio. Oxidation of other gaseous n-alkanes and n-alkanes was examined as described above. For liquid substrates, 10 μl of substrate was used directly.
# The products of epoxidation of n-alkenes and hydroxylation of n-alkanes were assayed by flame ionization gas chromatography using a stainless steel column (12'×1/8") packed with 10% Carbowax 20 M on 80/100 Chromosorb W and Porapak Q column. The column temperature was maintained isothermally at 120° C. The carrier gas flow rate was 30 ml/min. of helium. The various products were identified by retention time comparisons and co-chromatography with authentic standards.
# Specific activities were expressed as μ moles of products formed per hour per mg. protein. Concentrations of protein in various fractions were determined by the method of Lowry et al., J. Biol. Chem., 193: 265-275 (1951).
# [7] = test system: Methylosinus trichosporium OB3b (NRRL B-11,196); experiment: Oxidation by cell suspensions of methane-grown cells; format: cell-based; conditions: methane-grown cell-suspension, pH 7.0
# [8] = methane-grown washed cells, 30° C., methane to methanol, alkene to 1,2-epoxide
# [9] = methane-grown cells, propane to acetone, butane to 2-butanone
# [10] = growth substrate Methane, n-alkane to secondary alcohol
# [11] = methane-grown cell-suspension, pH 7.0, 3° C.
# [12] = methane-grown cell-suspension, pH 7.0, 30° C.
# [13] = cells grown on methane at 40° C., 30° C. reaction temperature
smiles,measurement,setting,value
CCC(C)O (stereo not shown) [2-Butanol],"Conversion Rate to Ketone, 2 hrs.",[1],20 μmole/2 mg protein
same,"Conversion Rate to Ketone, 2 hrs.",[2],1 μmole/2 mg protein
same,"Conversion Rate to Ketone, 20 hrs.",[2],3 μmole/2 mg protein
same,"Conversion Rate to Ketone, 2 hrs.",[3],10 μmole/2 mg protein
same,"Conversion Rate to Ketone, 2 hrs.",[4],18 μmole/2 mg protein
same,"Conversion Rate to Ketone, 20 hrs.",[4],50 μmole/2 mg protein
same,"Conversion Rate to Ketone, 2 hrs.",[5],20 μmole/2 mg protein
C=CC=C [Butadiene],Oxidative Conversion Rates,[1]; [8],1.27 μmole/hr/mg protein
same,Oxidative Conversion Rates,[2]; [8],1.5 μmole/hr/mg protein
same,Oxidative Conversion Rates,[3]; [8],2.8 μmole/hr/mg protein
same,Oxidative Conversion Rates,[4]; [8],4.4 μmole/hr/mg protein
same,Oxidative Conversion Rates,[5]; [8],4.2 μmole/hr/mg protein
CCCC [Butane],Conversion Rate,[6],0.61 μmoles/hr/2.0mg. of protein
same,Conversion Rate to Ketone,[1],3 μmoles/hr/mg Protein
same,Conversion Rate to 1-Butanol,[7]; 3° C.,0.3 μmoles/hr./mg./protein
same,Conversion Rate to 2-Butanol,[7]; 3° C.,0.4 μmoles/hr./mg./protein
same,Conversion Rate to 2-Butanone,[7]; 3° C.,0.1 μmoles/hr./mg./protein
same,Conversion Rate to n-butanol,[7]; 3° C.,0.1 μmoles/hr./mg./protein
same,Conversion Rate to Ketone,[2],1 μmoles/hr/mg Protein
same,Conversion Rate,[3],0.80 μmoles/hr/^5 mg. protein
same,Conversion Rate to Ketone,[3],2.0 μmoles/hr/mg Protein
same,Conversion Rate to Ketone,[4],2 μmoles/hr/mg Protein
same,Conversion Rate to 1-Butanol,[4]; pH 7,0.4 μmoles/hr./mg./protein
same,Conversion Rate to 2-Butanol,[4]; pH 7,0.5 μmoles/hr./mg./protein
same,Conversion Rate to 2-Butanone,[4]; pH 7,0.2 μmoles/hr./mg./protein
same,Conversion Rate to n-butanol,[4]; pH 7,0.2 μmoles/hr./mg./protein
same,Conversion Rate,[5],1.2 μmoles/hr/^5 mg. protein
same,Conversion Rate to Ketone,[5],1.0 μmoles/hr/mg Protein
C [Methane],Oxidizing Activity (rate of oxidation) in cell fraction,[6]; P(40),2.7 μ moles of products formed per
same,Oxidizing Activity (rate of oxidation) in cell fraction,[6]; P(80),2.8 μ moles of products formed per
same,Oxidizing Activity (rate of oxidation) in cell fraction,[6]; S(80),0 μ moles of products formed per
same,Oxidative Conversion Rates,[1],1.5
same,Conversion Rate to Methanol,[7]; 3° C.,1.5 μmoles/hr./mg./protein
same,Oxidative Conversion Rates,[2],0.8
same,Oxidative Conversion Rates,[3],0.7
same,Oxidative Conversion Rates,[4],2.5
same,Conversion Rate to Methanol,[4]; pH 7,2.5 μmoles/hr./mg./protein
same,Oxidative Conversion Rates,[5],1.2
CCC [Propane],Conversion Rate,[6],1.0 μmoles/hr/2.0mg. of protein
same,Conversion Rate to Ketone,[1]; [9],5.0 μmoles/hr/mg Protein
same,Conversion Rate to 2-Propanol,[7]; 3° C.,0.6 μmoles/hr./mg./protein
same,Conversion Rate to Acetone,[7]; 3° C.,0.2 μmoles/hr./mg./protein
same,Conversion Rate to Propanol,[7]; 3° C.,0.1 μmoles/hr./mg./protein
same,Conversion Rate to 1-Propanol,[7]; 30° C.,0.4 μmoles/hr./mg./protein
same,Conversion Rate to Ketone,[2]; [9],2.0 μmoles/hr/mg Protein
same,Conversion Rate,[3]; [10],1.4 μmoles/hr/^5 mg. protein
same,Conversion Rate to Ketone,[3]; [9],3.0 μmoles/hr/mg Protein
same,Conversion Rate to 2-Propanol,[4]; [11],0.7 μmoles/hr./mg./protein
same,Conversion Rate to Acetone,[4]; [11],0.3 μmoles/hr./mg./protein
same,Conversion Rate to 1-Propanol,[4]; [12],0.5 μmoles/hr./mg./protein
same,Conversion Rate to Propanol,[4]; [12],0.2 μmoles/hr./mg./protein
same,Conversion Rate to Ketone,[4]; [9],4.0 μmoles/hr/mg Protein
same,Conversion Rate,[5]; [10],2.1 μmoles/hr/^5 mg. protein
same,Conversion Rate to Ketone,[5]; [9],1.6 μmoles/hr/mg Protein
C=CC [Propylene],Oxidizing Activity (rate of oxidation) in cell fraction,[6]; P(40),1.2 μ moles of products formed per
same,Oxidizing Activity (rate of oxidation) in cell fraction,[6]; P(80),1.1 μ moles of products formed per
same,Oxidizing Activity (rate of oxidation) in cell fraction,[6]; S(80),0 μ moles of products formed per
same,conversion rate propylene to propylene oxide,[1]; [13],0.27 μ mole/2 hr./mg protein
same,Oxidative Conversion Rates,[1]; [8],1.5 μmole/hr/mg protein
same,Oxidative Conversion Rates,[2]; [8],1.2 μmole/hr/mg protein
same,Oxidative Conversion Rates,[3]; [8],2.5 μmole/hr/mg protein
same,conversion rate propylene to propylene oxide,[4]; [13],7.88 μ mole/2 hr./mg. protein
same,Oxidative Conversion Rates,[4]; [8],5.5 μmole/hr/mg protein
same,Oxidative Conversion Rates,[5]; [8],4.5 μmole/hr/mg protein
